Experimental data: US20240216339A1, “METHODS OF TREATING NEUROPSYCHIATRIC DISORDERS” (GILGAMESH PHARMACEUTICALS, INC., priority 2021, published 2024)

Legend:
[1] = test system: C57BL/6 mice; assay: Head twitch response (HTR) to 4-HO-MET after vehicle or daridorexant pre-treatment; assay type: in vivo, mouse; conditions: 4-HO-MET 0.32-3.2 mg/kg s.c.; vehicle (0.5% methylcellulose) pretreatment; 20 min period; FIG. 5
Description: Administration of 5-HT2A receptor agonists in mice induces a robust head twitch response (HTR). The number of head twitches observed in mice is recognized as an indicator of the degree of psychedelic effects (Halberstadt et al 2020). To determine whether the HTR induced by 5-HT2A receptor agonists is modulated by dual orexin receptor antagonists, a study was performed comparing the HTR induced by a 5-HT2A receptor agonist, 4-hydroxy-N-methyl-N-ethyltryptamine (4-HO-MET), after pre-treatment with either vehicle or the dual orexin receptor antagonist daridorexant.
Male C57BL/6 mice (˜6-8 Week; Hylasco, Hyderabad, India) were pair-housed under standard conditions on a 12-h light cycle with free access to food and water. On the test day, mice were randomly assigned to one of 6 treatment groups (see Table 1 below). Mice were dosed orally with 0.5% methylcellulose or daridorexant at t=−30 min followed by a subcutaneous (s.c.) injection of 4-HO-MET (0.32, 1, or 3.2 mg/kg) at t=0 min. Mice were then immediately placed in a chamber and the number of head twitches in a 20 min period post 4-HO-MET injection (t=0-20 min) were counted manually by a blinded, trained observer.

[2] = test system: individuals; conditions: anecdotal; individuals who fell asleep while taking LSD; more than 12 hours after the dose; cited from earlier work
[3] = test system: sleep-wake behaviour in Sprague Dawley rats; assay: EEG/EMG sleep-wake study of daridorexant, psilocybin and their combination; assay type: in vivo, rat
Description: The aim of this study was to investigate the effects of daridorexant, psilocybin, and the combination of the two compounds, on sleep-wake behaviour in Sprague Dawley rats, across the circadian cycle. Daridorexant is a dual orexin receptor antagonist used for treating insomnia. Psilocybin is a 5-HT2A receptor agonist with psychedelic properties and relatively short half-life. The study was conducted at Transpharmation, UK, under Study IDs EEG079a and EEG079c.
8 male Sprague Dawley rats (Charles River, UK) were used in the study. Animals were housed in groups of 2-3 with standard conditions. Average weight at start of dosing was 433-517 g, corresponding to ˜ 14 weeks old.
The animals were anaesthetised with isoflurane (2-5% in oxygen at 1 L/min) throughout the procedure. The scalp, neck, and right flank were cleared of hair using clippers and cleaned using diluted Hibitane (50% (v/v) in water). A non-steroidal anti-inflammatory agent was administered (Carprofen 5 mg/kg, subcutaneously (s.c.)) and the animals placed on a homeothermic blanket (37° C.) with the head fixed in a stereotaxic frame. Incisions were made in the scalp and neck, as well as in the right flank. Blunt dissection of the abdominal muscle was then made to gain access to the peritoneal cavity. A radio transmitter (HD-S02, Data Sciences International) was implanted in the peritoneal cavity and secured to the muscle wall with non-absorbable sutures. The wires of the transmitter were passed using a 16 G needle through the muscle wall and then sub-dermally to the scalp to act as EEG/EMG electrodes. The scalp was cleared of connective tissue and two craniotomies were made with a trepanning drill (fronto-parietal coordinates; Bregma+2 mm anterior, midline+1.0 mm lateral, and Lambda 0 mm, +1.5 mm lateral). The positive EEG electrode was attached to the anterior craniotomy and the negative EEG electrode to the posterior craniotomy. Both electrodes were secured in place using a suitable adhesive agent (cyanoacrylate gel, RS components). A second set of electrodes were sutured into the nuchal muscle to act as EMG electrodes. All incisions were closed using absorbable suture.
All animals were allowed to recover in a warm environment and given 5 mL of saline s.c. Animals were kept singly in the cage until the next day, then pair housed for the duration of post-surgical recovery (minimum 7 days). During the recovery period the rats received 5 days of standard post-operative care with no further experimental procedures until the pre-operative body weight was regained. The animals were maintained on a 12/12 h light-dark cycle (08:00 am lights on) after the surgery.
On study days, at ˜30 min after lights-on, animals were placed in recording boxes similar to their home cages and data acquisition was begun for confirmation of signal quality. After 30 min, each animal was briefly removed from its box to be dosed (see schedule below). Animals were immediately put back into the recording boxes, the experimenter left the room, and recordings continued uninterrupted for ˜23 h. At the end of the recording session, the transmitters were turned off and the animals were returned to their home cages. Animals received treatment conditions in a pseudo randomised cross-over fashion with a minimum period of 7 days between doses.
Daridorexant was administered p.o. at a volume of 5 mL/kg with 0.5% methylcellulose vehicle (Vehicle 1), at doses of 30 mg/kg or 100 mg/kg. Psilocybin was administered s.c. at a volume of 3 mL/kg with saline vehicle (Vehicle 2), at doses of 0.5 mg/kg, 1 mg/kg, or 3 mg/kg.
EEG, EMG, and locomotor activity data were acquired for ˜23 h post dosing using intraperitoneal HD-S02 transmitters (DSI, New Brighton, MN) and Spike2 software (CED, Cambridge UK). EEG/EMG signals were amplified, analogue filtered (0.5-100 Hz), digitized (256 Hz), and then digitally filtered (EEG: 0.5-100 Hz and EMG: 70-100 Hz). […]

[4] = test system: patients with major depressive disorder (MDD); conditions: discontinued Phase II study; cited from earlier work
[5] = test system: major depressive disorder (MDD); conditions: cited from earlier work
[6] = first 4 h after dosing, daridorexant at both 30 and 100 mg/kg p.o., FIG. 1B

SMILES: CCN(C)CCc1c[nH]c2cccc(O)c12 [4-HO-MET, 4-hydroxy-N-methyl-N-ethyltryptamine]
- number of head twitches (HTR) [1]: produced HTR in a dose-dependent manner

SMILES: CCN(CC)C(=O)[C@@H]1C=C2c3cccc4[nH]cc(c34)C[C@H]2N(C)C1 [LSD, lysergic acid diethylamide]
- next day creativity and vigor [2]: next day enhanced creativity and vigor

SMILES: COc1ccc(-n2nccn2)c(C(=O)N2CCC[C@@]2(C)c2nc3c(C)c(Cl)ccc3[nH]2)c1 [daridorexant]
- percentage of time spent in Wake across 22 h ([3]; first 2 h after dosing, daridorexant alone 30, 100 mg/kg, FIG. 3A): wakefulness reduction
- percentage of time spent in NREM across 22 h ([3]; first 2 h after dosing, daridorexant alone 30, 100 mg/kg, FIG. 3B): promotion of NREM and REM sleep
- percentage of time spent in REM across 22 h ([3]; first 2 h after dosing, daridorexant alone 30, 100 mg/kg, FIG. 3C): promotion of NREM and REM sleep
- percentage of time spent in Wake [3, 6]: acutely reduced wakefulness for the first 2 h after dosing
- percentage of time spent in sleep (NREM, REM) [3, 6]: promoting sleep, especially NREM sleep
- REM sleep onset latency ([3]; psilocybin 1, 3 mg/kg, daridorexant 30, 100 mg/kg, combinations D100+P1, D30+P1, FIG. 2A): dose-dependent decrease
- NREM sleep onset latency ([3]; psilocybin 1, 3 mg/kg, daridorexant 30, 100 mg/kg, combinations D100+P1, D30+P1, FIG. 2B): reduction

SMILES: Cc1ccc(-c2ncccn2)c(C(=O)N2C[C@H](COc3ccc(F)cn3)CC[C@H]2C)c1 [filorexant]
- separation from placebo in MDD [4]: did not separate from placebo

SMILES: Cc1cc(C)nc(N2CC3CN(C(=O)c4c(F)cccc4-n4nccn4)CC3C2)n1 (stereo not drawn) [seltorexant, Seltorexant]
- (left posterior) EEG power ([5]; compared to placebo): overall increase
- delta power during stage 2 sleep ([5]; compared to placebo): relative increase
- theta, alpha, and beta power during stage 2 sleep ([5]; compared to placebo): decrease
- antidepressant efficacy with continued treatment ([5]; continued treatment up to 28 days): maintained
- core depressive symptoms compared to placebo ([5]; ten days of treatment, seen at day 11): significant improvement
